Test results reported in the supplement of paper PMC10627819.

Columns and labels:
[1] = test system: S. aureus Newman; assay: Bliss interaction score (quartile over a dose matrix) (fitness difference); higher = more antagonism (negative = synergy)
Outline: (§1)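 Fitness here means normalised growth, inferred for single drugs from the combination data. Growth was OD595 at entry into stationary phase, divided by the plate's robust no-drug mean and capped at 1. The Bliss score is observed minus expected fitness, with the expectation being the product, and its quartiles span technical, biological and donor/recipient replicates.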

[2] = test system: B. subtilis 168; assay: as above
Outline: as §1

[3] = test system: S. pneumoniae D39V; assay: as above
Outline: as §1

[4] = test system: S. aureus DSM 20231; assay: as above
Outline: as §1

[5] = test system: S. aureus Newman; assay: fitness (endpoint OD595 vs no drug) (fraction); higher = more growth; conditions: one replicate, main component drawn
Outline: (§2)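 Fitness expresses the optical density reached at the stationary-phase transition as a fraction of the robust mean of no-drug control wells. It is capped at 1. Measurements were OD595 every 30 min for 14 h at 37 °C after inoculation of 384-well plates at OD595 0.01 (30 µl, or 55 µl for S. pneumoniae), minus the first reading.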

[6] = test system: B. subtilis 168; assay: as above
Outline: as §2

[7] = test system: S. pneumoniae D39V; assay: as above
Outline: as §2
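Throughout, for Bliss interaction score (quartile over a dose matrix): first quartile when negative (synergy) and third quartile when positive (antagonism).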
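Throughout, for fitness (endpoint OD595 vs no drug): OD595 on entry to stationary phase over no-drug wells; at most 1.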

CO/N=C(\C(=O)N[C@@H]1C(=O)N2C(C(=O)O)=C(COC(N)=O)CS[C@H]12)c1ccco1 [Cefuroxime] + CCCCCCCCCC(=O)N[C@@H]1[C@H]([C@@H]([C@H](O[C@H]1OC2=C3C=C4C=C2OC5=C(C=C(C=C5)[C@H]([C@H]6C(=O)N[C@@H](C7=C(C(=CC(=C7)O)OC8[C@H]([C@H]([C@@H]([C@H](O8)CO)O)O)O)C9=C(C=CC(=C9)[C@H](C(=O)N6)NC(=O)[C@@H]4NC(=O)[C@@H]1C2=CC(=CC(=C2)OC2=C(C=CC(=C2)[C@H](C(=O)N[C@H](CC2=CC(=C(O3)C=C2)Cl)C(=O)N1)N)O)O)O)C(=O)O)O[C@H]1[C@@H]([C@H]([C@@H]([C@H](O1)CO)O)O)NC(=O)C)Cl)CO)O)O [Teicoplanin]
main component drawn
Conditions | Bliss interaction score
[1] | 0.0304
[2] | -0.0964
[3] | -0.0352
[4] | 0.15

fitness, [5]
Conditions | first compound 0.04875 µg/mL | first compound 0.0975 µg/mL | first compound 0.195 µg/mL
partner 0.1562 µg/mL | ≥ 1 | 0.968 | 0.888
partner 0.3125 µg/mL | 0.991 | 0.968 | 0.953
partner 0.625 µg/mL | ≥ 1 | 0.977 | 0.973

C[C@H]1c2cccc(O)c2C(=O)C2=C(O)[C@]3(O)C(=O)C(C(N)=O)=C(O)[C@@H](N(C)C)[C@@H]3[C@@H](O)[C@@H]21 [Doxycycline] + CN[C@@H]1[C@H](O)[C@H](NC)[C@H]2O[C@@]3(O)C(=O)C[C@@H](C)O[C@H]3O[C@@H]2[C@H]1O [Spectinomycin]
Conditions | Bliss interaction score
[1] | -0.0405
[2] | -0.0339
[3] | -0.0375
[4] | -0.0389

fitness
Conditions | partner 2 µg/mL | partner 4 µg/mL | partner 8 µg/mL | partner 16 µg/mL
[6], first compound 0.02 µg/mL | 0.909 | 0.881 | 0.835 | –
[6], first compound 0.04 µg/mL | 0.824 | 0.828 | 0.712 | –
[6], first compound 0.08 µg/mL | 0.546 | – | 0.402 | –
[7], first compound 0.0155 µg/mL | – | 0.91 | 0.869 | 0.805
[7], first compound 0.031 µg/mL | – | 0.879 | 0.822 | –
[7], first compound 0.062 µg/mL | – | 0.783 | 0.758 | –

fitness, [7], one replicate
Conditions | first compound 0.003875 µg/mL | first compound 0.00775 µg/mL | first compound 0.031 µg/mL | first compound 0.062 µg/mL
partner 4 µg/mL | 0.971 | 0.908 | – | –
partner 8 µg/mL | 0.949 | 0.925 | – | –
partner 16 µg/mL | 0.804 | 0.834 | 0.768 | 0.673

C[C@H]1c2cccc(O)c2C(=O)C2=C(O)[C@]3(O)C(=O)C(C(N)=O)=C(O)[C@@H](N(C)C)[C@@H]3[C@@H](O)[C@@H]21 [Doxycycline] + CN[C@@H]1[C@H](O[C@H]2[C@H](O[C@H]3[C@H](O)[C@@H](O)[C@H](N=C(N)N)[C@@H](O)[C@@H]3N=C(N)N)O[C@@H](C)[C@]2(O)C=O)O[C@@H](CO)[C@H](O)[C@H]1O [Streptomycin]
Conditions | Bliss interaction score
[1] | -0.016
[2] | 0.251
[3] | -0.0673
[4] | 0.0508

fitness
Conditions | partner 2 µg/mL | partner 4 µg/mL | partner 8 µg/mL
[6], first compound 0.02 µg/mL | 0.902 | 0.772 | –
[6], first compound 0.04 µg/mL | 0.766 | 0.678 | –
[6], first compound 0.08 µg/mL | 0.497 | – | –
[7], first compound 0.0155 µg/mL | 0.9 | 0.895 | 0.891
[7], first compound 0.031 µg/mL | 0.866 | 0.859 | 0.837
[7], first compound 0.062 µg/mL | 0.72 | 0.714 | 0.735

[7], one replicate
Conditions | fitness
first compound 0.003875 µg/mL, partner 2 µg/mL | 0.955
first compound 0.003875 µg/mL, partner 4 µg/mL | ≥ 1
first compound 0.003875 µg/mL, partner 8 µg/mL | 0.977
first compound 0.00775 µg/mL, partner 2 µg/mL | 0.928
first compound 0.00775 µg/mL, partner 4 µg/mL | 0.952
first compound 0.00775 µg/mL, partner 8 µg/mL | 0.937
first compound 0.0155 µg/mL, partner 16 µg/mL | 0.741
first compound 0.031 µg/mL, partner 16 µg/mL | 0.671
first compound 0.062 µg/mL, partner 16 µg/mL | 0.57

C[C@H]1c2cccc(O)c2C(=O)C2=C(O)[C@]3(O)C(=O)C(C(N)=O)=C(O)[C@@H](N(C)C)[C@@H]3[C@@H](O)[C@@H]21 [Doxycycline] + COc1c(N2C[C@@H]3CCCN[C@@H]3C2)c(F)cc2c(=O)c(C(=O)O)cn(C3CC3)c12 [Moxifloxacin]
Conditions | Bliss interaction score
[1] | 0.036
[2] | 0.0361
[3] | -0.0559
[4] | 0.0965

Conditions | fitness
[6], first compound 0.02 µg/mL, partner 0.0312 µg/mL | 0.0633
[6], first compound 0.02 µg/mL, partner 0.0625 µg/mL | 0.0369
[6], first compound 0.02 µg/mL, partner 0.125 µg/mL | 0.0526
[6], first compound 0.02 µg/mL, partner 2 µg/mL | 0.0252
[6], first compound 0.02 µg/mL, partner 4 µg/mL | 0.0301
[6], first compound 0.02 µg/mL, partner 8 µg/mL | 0.061
[6], first compound 0.04 µg/mL, partner 0.0312 µg/mL | 0.0435
[6], first compound 0.04 µg/mL, partner 0.0625 µg/mL | 0.0347
[6], first compound 0.04 µg/mL, partner 0.125 µg/mL | 0.0489
[6], first compound 0.04 µg/mL, partner 2 µg/mL | 0.0204
[6], first compound 0.04 µg/mL, partner 4 µg/mL | 0.013
[6], first compound 0.04 µg/mL, partner 8 µg/mL | 0.0253
[6], first compound 0.08 µg/mL, partner 0.0625 µg/mL | 0.03
[6], first compound 0.08 µg/mL, partner 0.125 µg/mL | 0.0215
[6], first compound 0.08 µg/mL, partner 2 µg/mL | 0.0234
[6], first compound 0.08 µg/mL, partner 4 µg/mL | 0.0247
[6], first compound 0.08 µg/mL, partner 8 µg/mL | 0.0278
[7], first compound 0.0155 µg/mL, partner 0.0037 µg/mL | 0.791
[7], first compound 0.0155 µg/mL, partner 0.005 µg/mL | 0.918
[7], first compound 0.0155 µg/mL, partner 0.0075 µg/mL | 0.838
[7], first compound 0.0155 µg/mL, partner 0.01 µg/mL | 0.919
[7], first compound 0.0155 µg/mL, partner 0.015 µg/mL | 0.857
[7], first compound 0.0155 µg/mL, partner 0.02 µg/mL | 0.834
[7], first compound 0.031 µg/mL, partner 0.005 µg/mL | 0.886
[7], first compound 0.031 µg/mL, partner 0.01 µg/mL | 0.896
[7], first compound 0.031 µg/mL, partner 0.02 µg/mL | 0.783
[7], first compound 0.062 µg/mL, partner 0.005 µg/mL | 0.807
[7], first compound 0.062 µg/mL, partner 0.01 µg/mL | 0.856
[7], first compound 0.062 µg/mL, partner 0.02 µg/mL | 0.807

fitness, [7], one replicate
Conditions | first compound 0.003875 µg/mL | first compound 0.00775 µg/mL | first compound 0.031 µg/mL | first compound 0.062 µg/mL
partner 0.0037 µg/mL | 0.939 | 0.881 | 0.692 | 0.352
partner 0.0075 µg/mL | 0.952 | 0.894 | 0.806 | 0.679
partner 0.015 µg/mL | 0.909 | 0.874 | 0.721 | 0.59

C[C@H]1c2cccc(O)c2C(=O)C2=C(O)[C@]3(O)C(=O)C(C(N)=O)=C(O)[C@@H](N(C)C)[C@@H]3[C@@H](O)[C@@H]21 [Doxycycline] + COc1ccc(C[C@H](N)C(=O)N[C@H]2[C@@H](O)[C@H](n3cnc4c(N(C)C)ncnc43)O[C@@H]2CO)cc1 [Puromycin]
Conditions | Bliss interaction score
[1] | -0.0507
[2] | -0.0496
[3] | 0.0767
[4] | -0.0866

Conditions | fitness
[6], first compound 0.02 µg/mL, partner 0.39 µg/mL | 0.861
[6], first compound 0.02 µg/mL, partner 0.78 µg/mL | 0.858
[6], first compound 0.02 µg/mL, partner 1.56 µg/mL | 0.877
[6], first compound 0.04 µg/mL, partner 0.39 µg/mL | 0.748
[6], first compound 0.04 µg/mL, partner 0.78 µg/mL | 0.751
[6], first compound 0.04 µg/mL, partner 1.56 µg/mL | 0.761
[6], first compound 0.08 µg/mL, partner 0.39 µg/mL | 0.405
[7], first compound 0.0155 µg/mL, partner 1 µg/mL | ≥ 1
[7], first compound 0.0155 µg/mL, partner 2 µg/mL | 0.97
[7], first compound 0.0155 µg/mL, partner 4 µg/mL | 0.834
[7], first compound 0.031 µg/mL, partner 1 µg/mL | 0.857
[7], first compound 0.031 µg/mL, partner 2 µg/mL | 0.836
[7], first compound 0.031 µg/mL, partner 4 µg/mL | 0.73
[7], first compound 0.062 µg/mL, partner 1 µg/mL | 0.847
[7], first compound 0.062 µg/mL, partner 2 µg/mL | 0.786
[7], first compound 0.062 µg/mL, partner 4 µg/mL | 0.637

fitness, [7], one replicate
Conditions | partner 1 µg/mL | partner 2 µg/mL | partner 4 µg/mL
first compound 0.003875 µg/mL | ≥ 1 | 0.98 | 0.847
first compound 0.00775 µg/mL | ≥ 1 | 0.976 | 0.86
